Assays:
Experiment in all cases: relative viability (nuclei count vs DMSO), 5 days (fraction); higher = more cells survive
Bortezomib + Olaparib = compound: CC(C)C[C@H](NC(=O)[C@H](Cc1ccccc1)NC(=O)c1cnccn1)B(O)O [Bortezomib] + O=C(c1cc(Cc2n[nH]c(=O)c3ccccc23)ccc1F)N1CCN(C(=O)C2CC2)CC1 [Olaparib] (partner 8 µM)
Summary of the method: (§1)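 The day after seeding in 1536-well plates, lung cancer cell lines were treated by pin tool with a single drug, or with a fixed anchor-drug dose together with five library-drug doses (not always all listed) in √10 steps. After 5 days, a combined fix-and-stain solution (final 0.05% Triton X-100, 1% formaldehyde, 1 ug/ml Hoechst) was added. Nuclei counted on 4× images gave relative viability as treated counts over vehicle counts, reported as the median of duplicate plates.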

[1] = compound: CC1=CC(=NN1)NC2=CC(=NC(=N2)/C=C/C3=CC=CC=C3)N4CCN(CC4)C + CC(=O)c1c(C)c2cnc(Nc3ccc(N4CCNCC4)cn3)nc2n(C2CCCC2)c1=O [Palbociclib] (partner 0.5 µM)
Summary of the method: as §1

Obatoclax + Palbociclib = compound: COC1=CC(c2cc3ccccc3[nH]2)=N/C1=C\c1[nH]c(C)cc1C [Obatoclax] + CC(=O)c1c(C)c2cnc(Nc3ccc(N4CCNCC4)cn3)nc2n(C2CCCC2)c1=O [Palbociclib] (partner 0.5 µM)
Summary of the method: as §1

Obatoclax + Dasatinib = compound: COC1=CC(c2cc3ccccc3[nH]2)=N/C1=C\c1[nH]c(C)cc1C [Obatoclax] + Cc1nc(Nc2ncc(C(=O)Nc3c(C)cccc3Cl)s2)cc(N2CCN(CCO)CC2)n1 [Dasatinib] (partner 0.075 µM)
Summary of the method: as §1

NCI-H650
relative viability (Bortezomib + Olaparib; first compound 0.0002 µM): 0.372 | relative viability (Bortezomib + Olaparib; first compound 0.000632 µM): 0.435 | relative viability (Bortezomib + Olaparib; first compound 0.002 µM): 0.398 | relative viability (Bortezomib + Olaparib; first compound 0.006325 µM): 0.165 | relative viability (Bortezomib + Olaparib; first compound 0.02 µM): 0.102 | relative viability ([1]; first compound 0.08 µM): 0.288 | relative viability ([1]; first compound 0.253 µM): 0.321 | relative viability ([1]; first compound 0.8 µM): 0.339 | relative viability ([1]; first compound 2.53 µM): 0.294 | relative viability ([1]; first compound 8 µM): 0.177 | relative viability (Obatoclax + Palbociclib; first compound 0.01 µM): 0.319 | relative viability (Obatoclax + Palbociclib; first compound 0.03162 µM): 0.352 | relative viability (Obatoclax + Palbociclib; first compound 0.3162 µM): 0.178 | relative viability (Obatoclax + Palbociclib; first compound 1 µM): 0.184 | relative viability (Obatoclax + Dasatinib; first compound 0.01 µM): 0.451 | relative viability (Obatoclax + Dasatinib; first compound 0.03162 µM): 0.431 | relative viability (Obatoclax + Dasatinib; first compound 0.3162 µM): 0.279 | relative viability (Obatoclax + Dasatinib; first compound 1 µM): 0.263

Source: the supplement of paper PMC10307832
